The source made the active and inactive calls.
Assays:
[1] = target: T1, Histone-lysine N-methyltransferase NSD2 (Homo sapiens, UniProt O96028); assay type: biochemical
T1 sequence (O96028 whole entry): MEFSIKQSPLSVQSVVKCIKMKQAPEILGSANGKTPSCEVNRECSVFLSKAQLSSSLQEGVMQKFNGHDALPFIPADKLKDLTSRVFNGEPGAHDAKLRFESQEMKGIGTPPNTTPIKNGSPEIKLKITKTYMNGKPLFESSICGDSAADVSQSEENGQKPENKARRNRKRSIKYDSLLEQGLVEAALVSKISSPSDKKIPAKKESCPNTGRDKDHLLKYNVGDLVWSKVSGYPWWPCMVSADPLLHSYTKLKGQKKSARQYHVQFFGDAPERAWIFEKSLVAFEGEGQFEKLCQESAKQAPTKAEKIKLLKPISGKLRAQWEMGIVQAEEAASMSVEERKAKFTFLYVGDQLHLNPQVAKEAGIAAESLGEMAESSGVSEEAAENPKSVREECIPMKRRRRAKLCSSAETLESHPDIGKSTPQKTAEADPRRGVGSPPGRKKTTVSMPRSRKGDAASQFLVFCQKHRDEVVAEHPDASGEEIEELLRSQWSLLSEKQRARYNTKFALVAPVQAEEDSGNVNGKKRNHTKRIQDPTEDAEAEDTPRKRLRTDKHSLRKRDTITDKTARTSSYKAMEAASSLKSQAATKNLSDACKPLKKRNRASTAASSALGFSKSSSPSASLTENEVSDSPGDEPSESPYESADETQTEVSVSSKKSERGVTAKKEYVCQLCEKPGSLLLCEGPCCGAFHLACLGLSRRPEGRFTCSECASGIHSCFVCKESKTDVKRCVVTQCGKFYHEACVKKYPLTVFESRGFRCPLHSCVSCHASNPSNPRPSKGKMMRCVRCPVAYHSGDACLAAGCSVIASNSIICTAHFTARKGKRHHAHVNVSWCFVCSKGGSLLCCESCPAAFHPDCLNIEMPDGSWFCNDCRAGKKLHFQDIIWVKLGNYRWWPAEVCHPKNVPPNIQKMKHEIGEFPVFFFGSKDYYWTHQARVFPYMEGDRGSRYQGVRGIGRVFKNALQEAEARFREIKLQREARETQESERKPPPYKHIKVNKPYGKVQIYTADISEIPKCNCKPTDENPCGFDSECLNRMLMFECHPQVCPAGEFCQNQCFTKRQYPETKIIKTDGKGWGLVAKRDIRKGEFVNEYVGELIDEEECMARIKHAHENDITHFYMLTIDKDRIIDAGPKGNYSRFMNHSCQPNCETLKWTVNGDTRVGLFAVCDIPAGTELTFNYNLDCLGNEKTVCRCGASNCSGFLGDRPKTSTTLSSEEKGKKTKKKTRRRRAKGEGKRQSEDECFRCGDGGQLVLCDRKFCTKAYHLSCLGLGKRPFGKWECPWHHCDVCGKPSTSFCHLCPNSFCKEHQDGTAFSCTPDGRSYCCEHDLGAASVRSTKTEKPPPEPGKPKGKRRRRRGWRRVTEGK

[2] = target: Ribosomal protein S6 kinase alpha-3 (Homo sapiens, UniProt P51812); assay type: functional;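 also: measured within a kinome-wide profiling panel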
[3] = target: Tyrosine-protein kinase JAK2 (Homo sapiens, UniProt O60674); assay type: functional;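 also: JAK2 tested as one member of a kinase panel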
[4] = target: Tyrosine-protein kinase Lck (Homo sapiens, UniProt P06239); assay type: functional;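 also: lck was assayed as one member of a kinase panel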
[5] = target: Mitogen-activated protein kinase 8 (Homo sapiens, UniProt P45983); assay type: functional;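 also: value comes from one member of a kinome-wide kinase profiling panel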
[6] = target: Serine/threonine-protein kinase pim-1 (Homo sapiens, UniProt P11309); assay type: functional
Aurora kinase A = Aurora kinase A (Homo sapiens, UniProt O14965); assay type: functional;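 also: value from the Navigating the Kinome kinase panel profiling, panel entry STK6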
[7] = target: Serine/threonine-protein kinase PAK 4 (Homo sapiens, UniProt O96013); assay type: functional;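 also: value obtained within a kinome profiling panel in which PAK4 was one of the panel members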
[8] = target: Tyrosine-protein kinase JAK3 (Homo sapiens, UniProt P52333); assay type: functional
[9] = target: Mitogen-activated protein kinase 9 (Homo sapiens, UniProt P45984); assay type: functional;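 also: value from a kinome panel profiling assay, MAPK9 panel entry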
LIM domain kinase 1 = LIM domain kinase 1 (Homo sapiens, UniProt P53667); assay: Navigating the Kinome. Panel member name: LIMK1; assay type: functional
[10] = target: High affinity nerve growth factor receptor (Homo sapiens, UniProt P04629); assay type: functional;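 also: NTRK1 tested as one member of a kinome-wide profiling panel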
[11] = target: Glycogen synthase kinase-3 alpha (Homo sapiens, UniProt P49840); assay type: functional;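 also: GSK3A result taken from a broad kinome-wide kinase panel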
[12] = target: Hepatocyte growth factor receptor (Homo sapiens, UniProt P08581); assay type: functional;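 also: kinase panel profiling across the kinome, with MET as the panel member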
[13] = target: Serine/threonine-protein kinase Chk1 (Homo sapiens, UniProt O14757); assay type: functional;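 also: measured as one member of a kinome-wide kinase profiling panel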
[14] = target: Tyrosine-protein kinase ABL1 (Homo sapiens, UniProt P00519); assay type: functional
[15] = target: Vascular endothelial growth factor receptor 2 (Homo sapiens, UniProt P35968); assay type: functional
[16] = target: Cyclin-dependent kinase 5 (Homo sapiens, UniProt Q00535); assay type: functional;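 also: CDK5 measured as one member of a kinase profiling panel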
[17] = target: Insulin-like growth factor 1 receptor (Homo sapiens, UniProt P08069); assay: Navigating the Kinome. Panel member name: IGF1R; assay type: functional
Aurora kinase B = Aurora kinase B (Homo sapiens, UniProt Q96GD4); assay type: functional
[18] = target: Rho-associated protein kinase 1 (Homo sapiens, UniProt Q13464); assay type: functional;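 also: measured within a broad kinome-wide panel profiling many kinases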
[19] = target: Tyrosine-protein kinase Fyn (Homo sapiens, UniProt P06241); assay type: functional
[20] = target: Serine/threonine-protein kinase Nek2 (Homo sapiens, UniProt P51955); assay type: functional
[21] = target: Vascular endothelial growth factor receptor 1 (Homo sapiens, UniProt P17948); assay type: functional;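 also: measured within a kinome-wide profiling panel, FLT1 as the panel member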
[22] = target: Glycogen synthase kinase-3 beta (Homo sapiens, UniProt P49841); assay type: functional;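 also: value comes from a broad kinome profiling panel, with GSK3B as the panel member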
[23] = target: BDNF/NT-3 growth factors receptor (Homo sapiens, UniProt Q16620); assay type: functional;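 also: NTRK2 measured as one member of a broad kinome-wide kinase profiling panel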
[24] = target: cAMP-dependent protein kinase catalytic subunit alpha (Homo sapiens, UniProt P17612); assay type: functional
[25] = target: Macrophage colony-stimulating factor 1 receptor (Homo sapiens, UniProt P07333); assay type: functional;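 also: value comes from the Navigating the Kinome screening panel, CSF1R member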
Sequence of Macrophage colony-stimulating factor 1 receptor (P07333 whole entry): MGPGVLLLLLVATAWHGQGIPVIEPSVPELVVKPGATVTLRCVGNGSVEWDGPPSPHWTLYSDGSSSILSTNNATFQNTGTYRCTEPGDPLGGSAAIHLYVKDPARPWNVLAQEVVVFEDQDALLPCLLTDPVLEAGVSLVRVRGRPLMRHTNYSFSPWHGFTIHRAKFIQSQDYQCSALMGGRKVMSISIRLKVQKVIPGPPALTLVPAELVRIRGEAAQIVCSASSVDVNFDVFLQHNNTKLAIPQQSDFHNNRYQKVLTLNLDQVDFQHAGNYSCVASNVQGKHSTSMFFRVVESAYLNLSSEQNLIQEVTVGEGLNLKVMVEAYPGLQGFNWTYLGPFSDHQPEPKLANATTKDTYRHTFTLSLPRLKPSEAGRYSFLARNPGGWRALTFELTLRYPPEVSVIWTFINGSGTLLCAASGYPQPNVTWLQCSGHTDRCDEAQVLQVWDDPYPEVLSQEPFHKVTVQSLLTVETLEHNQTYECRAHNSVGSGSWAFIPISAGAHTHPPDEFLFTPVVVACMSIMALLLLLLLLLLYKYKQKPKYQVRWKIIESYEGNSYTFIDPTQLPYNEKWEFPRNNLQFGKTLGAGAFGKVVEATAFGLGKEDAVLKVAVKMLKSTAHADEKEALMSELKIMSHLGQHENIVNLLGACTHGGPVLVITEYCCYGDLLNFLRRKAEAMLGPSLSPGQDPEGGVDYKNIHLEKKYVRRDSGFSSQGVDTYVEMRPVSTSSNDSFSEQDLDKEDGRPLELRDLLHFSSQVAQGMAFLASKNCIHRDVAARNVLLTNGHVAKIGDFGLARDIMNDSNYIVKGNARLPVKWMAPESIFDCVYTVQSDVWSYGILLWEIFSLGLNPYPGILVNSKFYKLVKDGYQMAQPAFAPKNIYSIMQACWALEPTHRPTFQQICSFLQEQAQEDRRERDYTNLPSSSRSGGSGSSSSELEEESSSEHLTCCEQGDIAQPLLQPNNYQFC

Sequence of Tyrosine-protein kinase JAK2 (O60674 whole entry): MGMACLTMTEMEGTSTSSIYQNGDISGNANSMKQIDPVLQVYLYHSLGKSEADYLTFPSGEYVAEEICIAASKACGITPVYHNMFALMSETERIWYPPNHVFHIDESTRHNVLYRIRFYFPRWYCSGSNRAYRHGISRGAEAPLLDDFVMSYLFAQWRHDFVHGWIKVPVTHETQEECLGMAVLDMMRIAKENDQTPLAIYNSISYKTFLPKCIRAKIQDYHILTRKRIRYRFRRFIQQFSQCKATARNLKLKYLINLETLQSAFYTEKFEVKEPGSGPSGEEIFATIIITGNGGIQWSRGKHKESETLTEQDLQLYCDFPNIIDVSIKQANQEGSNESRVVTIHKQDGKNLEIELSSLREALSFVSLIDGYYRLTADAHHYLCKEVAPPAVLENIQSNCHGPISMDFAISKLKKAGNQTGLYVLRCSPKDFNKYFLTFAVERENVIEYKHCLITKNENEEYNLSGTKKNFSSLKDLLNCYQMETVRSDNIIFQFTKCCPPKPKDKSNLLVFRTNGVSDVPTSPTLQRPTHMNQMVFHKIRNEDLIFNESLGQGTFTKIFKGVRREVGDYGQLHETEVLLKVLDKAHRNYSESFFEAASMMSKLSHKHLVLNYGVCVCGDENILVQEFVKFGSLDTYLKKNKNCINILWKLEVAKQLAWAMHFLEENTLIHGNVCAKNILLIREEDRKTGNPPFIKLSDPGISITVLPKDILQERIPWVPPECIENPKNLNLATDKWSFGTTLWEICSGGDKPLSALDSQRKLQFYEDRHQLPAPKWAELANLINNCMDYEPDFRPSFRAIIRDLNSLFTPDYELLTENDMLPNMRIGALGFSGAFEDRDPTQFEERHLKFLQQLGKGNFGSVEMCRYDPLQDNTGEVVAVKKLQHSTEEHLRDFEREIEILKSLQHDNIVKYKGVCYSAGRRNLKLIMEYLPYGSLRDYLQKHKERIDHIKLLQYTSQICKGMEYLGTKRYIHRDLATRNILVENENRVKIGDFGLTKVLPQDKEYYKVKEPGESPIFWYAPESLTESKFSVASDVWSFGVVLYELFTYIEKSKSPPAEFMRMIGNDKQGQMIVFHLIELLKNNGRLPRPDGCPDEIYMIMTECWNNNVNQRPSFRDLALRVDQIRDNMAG
Sequence of Glycogen synthase kinase-3 alpha (P49840 whole entry): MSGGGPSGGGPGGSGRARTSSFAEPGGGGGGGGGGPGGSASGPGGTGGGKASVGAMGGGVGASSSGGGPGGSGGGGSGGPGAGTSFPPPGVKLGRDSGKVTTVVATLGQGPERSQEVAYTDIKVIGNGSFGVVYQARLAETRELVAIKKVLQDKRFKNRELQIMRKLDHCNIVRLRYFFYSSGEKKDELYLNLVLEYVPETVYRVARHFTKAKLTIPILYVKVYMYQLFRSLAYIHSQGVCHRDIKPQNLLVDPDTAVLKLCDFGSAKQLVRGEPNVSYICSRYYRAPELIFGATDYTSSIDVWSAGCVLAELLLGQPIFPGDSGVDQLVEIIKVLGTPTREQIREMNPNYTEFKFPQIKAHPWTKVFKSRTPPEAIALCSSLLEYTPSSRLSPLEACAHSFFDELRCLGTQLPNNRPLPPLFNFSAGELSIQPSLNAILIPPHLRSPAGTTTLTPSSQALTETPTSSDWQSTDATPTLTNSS
Sequence of Ribosomal protein S6 kinase alpha-3 (P51812 whole entry): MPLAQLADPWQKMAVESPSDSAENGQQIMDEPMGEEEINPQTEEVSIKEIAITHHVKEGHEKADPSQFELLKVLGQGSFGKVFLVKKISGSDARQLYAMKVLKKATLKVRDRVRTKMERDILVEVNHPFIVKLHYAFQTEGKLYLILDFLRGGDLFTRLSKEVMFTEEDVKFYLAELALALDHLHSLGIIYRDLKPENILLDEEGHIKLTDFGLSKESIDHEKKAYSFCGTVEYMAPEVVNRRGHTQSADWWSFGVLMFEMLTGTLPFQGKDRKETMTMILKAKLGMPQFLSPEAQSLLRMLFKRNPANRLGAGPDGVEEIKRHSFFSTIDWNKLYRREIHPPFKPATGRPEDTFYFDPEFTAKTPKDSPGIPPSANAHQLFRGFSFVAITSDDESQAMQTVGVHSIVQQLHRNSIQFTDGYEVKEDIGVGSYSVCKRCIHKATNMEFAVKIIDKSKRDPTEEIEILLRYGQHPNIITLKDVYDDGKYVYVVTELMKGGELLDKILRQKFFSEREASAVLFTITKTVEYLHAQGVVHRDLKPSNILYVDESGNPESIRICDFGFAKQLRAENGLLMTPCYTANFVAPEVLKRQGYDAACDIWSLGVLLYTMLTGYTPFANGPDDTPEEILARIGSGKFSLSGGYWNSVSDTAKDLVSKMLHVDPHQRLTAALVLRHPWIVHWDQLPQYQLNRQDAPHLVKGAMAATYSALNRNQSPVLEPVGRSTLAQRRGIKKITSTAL
Sequence of Vascular endothelial growth factor receptor 2 (P35968 whole entry): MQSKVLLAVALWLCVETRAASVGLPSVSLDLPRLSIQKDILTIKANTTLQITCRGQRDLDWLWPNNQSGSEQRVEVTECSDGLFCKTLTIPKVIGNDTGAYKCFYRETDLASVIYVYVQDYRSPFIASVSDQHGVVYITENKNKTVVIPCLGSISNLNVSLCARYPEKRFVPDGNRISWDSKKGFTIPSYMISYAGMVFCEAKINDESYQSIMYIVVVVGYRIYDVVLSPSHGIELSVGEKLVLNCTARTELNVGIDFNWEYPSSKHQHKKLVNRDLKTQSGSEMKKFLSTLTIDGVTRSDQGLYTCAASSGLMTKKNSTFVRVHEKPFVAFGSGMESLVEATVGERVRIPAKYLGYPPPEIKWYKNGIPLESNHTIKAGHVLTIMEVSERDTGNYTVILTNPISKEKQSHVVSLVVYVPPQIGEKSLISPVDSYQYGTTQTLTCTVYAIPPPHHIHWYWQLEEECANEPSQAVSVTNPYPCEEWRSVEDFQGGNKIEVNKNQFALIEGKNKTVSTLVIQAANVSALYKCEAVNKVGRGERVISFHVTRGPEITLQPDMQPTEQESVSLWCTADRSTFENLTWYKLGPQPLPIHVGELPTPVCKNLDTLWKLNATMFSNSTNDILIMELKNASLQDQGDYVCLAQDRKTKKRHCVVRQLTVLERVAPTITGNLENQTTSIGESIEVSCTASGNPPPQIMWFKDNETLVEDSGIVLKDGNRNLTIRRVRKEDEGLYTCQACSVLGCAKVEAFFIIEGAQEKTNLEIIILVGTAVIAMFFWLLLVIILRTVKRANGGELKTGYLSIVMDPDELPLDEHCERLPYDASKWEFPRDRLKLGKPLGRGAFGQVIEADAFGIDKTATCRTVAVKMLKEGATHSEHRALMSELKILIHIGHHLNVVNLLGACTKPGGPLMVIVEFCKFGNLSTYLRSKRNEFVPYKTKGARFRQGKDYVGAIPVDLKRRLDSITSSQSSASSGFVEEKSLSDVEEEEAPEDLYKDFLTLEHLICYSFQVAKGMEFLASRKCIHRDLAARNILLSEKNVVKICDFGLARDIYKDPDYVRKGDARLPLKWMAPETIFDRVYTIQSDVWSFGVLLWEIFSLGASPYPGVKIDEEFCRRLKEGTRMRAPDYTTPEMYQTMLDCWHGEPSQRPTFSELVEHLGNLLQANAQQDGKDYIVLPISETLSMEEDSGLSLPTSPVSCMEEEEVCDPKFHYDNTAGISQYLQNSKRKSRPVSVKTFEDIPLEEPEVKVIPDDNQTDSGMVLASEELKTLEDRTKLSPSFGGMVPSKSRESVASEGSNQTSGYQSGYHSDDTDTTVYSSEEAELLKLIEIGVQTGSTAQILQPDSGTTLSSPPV
Sequence of Aurora kinase B (Q96GD4 whole entry): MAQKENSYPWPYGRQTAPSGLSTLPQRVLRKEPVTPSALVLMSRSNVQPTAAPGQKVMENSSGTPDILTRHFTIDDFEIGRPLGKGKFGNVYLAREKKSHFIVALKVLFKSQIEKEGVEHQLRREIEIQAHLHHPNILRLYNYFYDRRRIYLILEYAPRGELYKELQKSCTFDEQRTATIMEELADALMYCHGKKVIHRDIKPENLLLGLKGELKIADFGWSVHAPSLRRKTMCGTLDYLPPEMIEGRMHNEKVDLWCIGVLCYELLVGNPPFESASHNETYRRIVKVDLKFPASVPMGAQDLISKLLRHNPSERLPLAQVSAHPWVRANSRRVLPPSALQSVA

Compound	AC50 [1]	Ki [2]	Ki [3]	Ki [4]	Ki [5]	Ki [6]	Ki (Aurora kinase A)	Ki [7]	Ki [8]	Ki [9]	Ki (LIM domain kinase 1)	Ki [10]	Ki [11]	Ki [12]	Ki [13]	Ki [14]	Ki [15]	Ki [16]	Ki [17]	Ki (Aurora kinase B)	further results
O=C1C=C(NCc2ccccc2)c2ccccc2C1=O	2.16 µM (active)																				
O=C(O)c1[nH]c2ccccc2c1C(c1cc(Cl)cc([N+](=O)[O-])c1O)c1c(C(=O)O)[nH]c2ccccc12	16.6 µM (active)																				
CCOC(=O)c1cn(-c2ccc(O)cc2C)c2cc(-c3ccncc3)ccc2c1=O		> 7.94 µM (inactive)	> 1.58 µM (inactive)	> 2.51 µM (inactive)	> 3.16 µM (inactive)	> 10 µM (inactive)	> 6.31 µM (inactive)	> 5.01 µM (inactive)	> 1.58 µM (inactive)	> 3.98 µM (inactive)	> 10 µM (inactive)	> 2.51 µM (inactive)	7.94 µM (active)	> 3.16 µM (inactive)	> 7.94 µM (inactive)	> 0.631 µM (inactive)	> 7.94 µM (inactive)	5.01 µM (active)	> 1 µM (inactive)	> 6.31 µM (inactive)	Ki [18]: 0.158 µM (active); Ki [19]: > 0.794 µM (inactive); Ki [20]: > 10 µM (inactive); Ki [21]: > 0.398 µM (inactive); Ki [22]: > 6.31 µM (inactive); Ki [23]: > 5.01 µM (inactive); Ki [24]: 1.26 µM (active); Ki [25]: > 2.51 µM (inactive)
Cc1cc(=O)[nH]nc1-c1ccc(NC(=O)Nc2cc(C(F)(F)F)ccc2F)c(Cl)c1		> 3.98 µM (inactive)	> 2.51 µM (inactive)	> 6.31 µM (inactive)	> 5.01 µM (inactive)	> 6.31 µM (inactive)	> 1.58 µM (inactive)	> 5.01 µM (inactive)	> 5.01 µM (inactive)	> 3.98 µM (inactive)	> 3.16 µM (inactive)	0.0631 µM (active)	> 3.98 µM (inactive)	> 2.51 µM (inactive)	> 3.16 µM (inactive)	> 2.51 µM (inactive)	0.316 µM (active)	> 3.16 µM (inactive)	> 2.51 µM (inactive)	> 3.98 µM (inactive)	Ki [18]: > 3.98 µM (inactive); Ki [19]: > 6.31 µM (inactive); Ki [20]: > 3.16 µM (inactive); Ki [21]: > 3.98 µM (inactive); Ki [22]: > 3.98 µM (inactive); Ki [23]: 0.01 µM (active); Ki [24]: > 1.26 µM (inactive); Ki [25]: > 2.51 µM (inactive)
